The source of these data is article PMC6271218, “Pharmacokinetics, Tissue Distribution and Excretion of Verticinone from F. hupehensis in Rats” (Molecules, 2014).

Data set [1] in a line: Plasma pharmacokinetics after i.v. administration. It counts as in vivo, SD rats. To be noted: for AUC(0-inf) / AUC(0-t) / MRT last: SD, rat, plasma, iv; for AUC(0-inf) / AUC(0-t) / MRT last / Vz/F: i.v. 0.4 mg/kg; for MRT last: read-out: MRT0–t. The protocol:
Pharmacokinetic studies of verticinone after intravenous (i.v.) and intragastrical (i.g.) administration to rats were designed to determine pharmacokinetic parameters and absolute bioavailability. For i.g administration, verticinone was suspended in 0.5% carboxymethyl cellulose sodium (CMC-Na) to final concentrations of 0.2, 0.4 and 0.8 mg/mL. Verticinone was dissolved in 20% ethanol/80% water to final concentration of 0.08 mg/mL for i.v. administration. For the i.v. group, five male and five female rats received a single dose of 0.4 mg/kg. Blood samples (0.25 mL) were obtained at 0, 4, 15, 30, 45, 60, 120, 240, 360, 480, 600 and 720 min after injection. For the single- i.g. group, fifteen male and fifteen female rats were divided into three groups, and each group received a single oral dose of 1, 2 and 4 mg/kg of verticinone, respectively. In addition, another five male and five female rats received multiple oral doses of 4 mg/kg/day, given as 2 mg/kg doses twice a day (one dose in the morning and the second dose 12 h later) for 7 days, then a single oral dose of 2 mg/kg on the eighth day. Blood samples (0.25 mL) were obtained at 0, 5, 15, 30, 45, 60, 90, 120, 240, 360, 480 and 720 min for male rats and at 0, 5, 10, 20, 30, 45, 60, 120, 240, 360, 480 and 720 min for female rats after oral administration (the eighth day for multiple-dose group). Blood samples were then centrifuged at 4000 rpm for 10 min, and the plasma was collected. All plasma samples were frozen and stored at −20 °C until analysis. Verticinone was isolated from plasma by liquid-liquid extraction according to our previously reported procedure.
(§1) The quantification of verticinone was performed by a LC-MS method based on the previously reported method with slight modifications. The liquid chromatography system consisted of a model 2010 chromatograph (Shimadzu, Kyoto, Japan) equipped with a Shim-Pack VP-ODS C18 column (150 mm × 2.0 mm, 5 μm). A Shimadzu 2010 mass spectrometer (Q-array-Octapole-Quadrupole mass analyzer) equipped with an electrospray ionization interface was used for MS detection. The mobile phase consisted of (A) distilled water and (B) methanol, and the flow rate was 0.2 mL/min. Chromatography separation was achieved using a gradient elution program, as follows: 0.03→6.0 min, B% 15→85; 6.0→7.0 min, B% 85→85; 7.0→8.0 min, B% 85→15; 8.0–12.0 min, B% 15→15. The column and autosampler tray temperature were kept constant at 35 °C and 20 °C, respectively. For the determination of verticinone, the positive mode was selected, along with the conditions as follows.
CDL voltage […], probe voltage 4.5 kV, CDL temperature 250 °C, block temperature 200 °C, gas flow 1.5 L/min. Hupehenine was used as the internal standard (IS). Both verticinone and IS were detected using selected ion monitoring (SIM) at m/z 430.25 for verticinone and m/z 416.30 for hupehenine (IS), with a dwell time of 200 ms. Blank plasma, tissue homogenate, urine, feces homogenate and bile were used to prepare the corresponding calibration curves to avoid different matrix effects.
The pharmacokinetic parameters were calculated by the DAS 2.0 software (Chinese Pharmacological Association, Beijing, China) using a standard non-compartmental method. The Cmax and Tmax were determined from the observed data. The elimination rate constant (ke) was calculated by log-linear regression of verticinone concentrations during the terminal elimination phase and the half-life (t1/2) was calculated as 0.693/ke. The AUC0–t was calculated by the linear trapezoidal method. The AUC0–∞ was calculated as the sum of AUC0–t and the extrapolated part determined by Clast/ke. The total clearance (CL) was calculated as dose/AUC0–∞. The absolute bioavailability (F) was calculated by the following equation: F = [(AUCi.g./AUCi.v.) × (Dosei.v./Dosei.g.)] × 100%. The results were expressed as mean ± SD. Statistical analyses were performed using an unpaired Student’s t-test.

Data set [2] in a line: Tissue distribution study after oral administration. It counts as in vivo, rats. The note with it: for rank order of AUC values for individual tissues: i.g. 2 mg/kg. How it is done:
A single 2 mg/kg oral dose of verticinone was administrated to thirty rats (15 male and 15 female). Rats were sacrificed and tissues (heart, liver, spleen, lung, kidney, brain, stomach, intestine, skin, muscle, fat and gonads) were promptly removed at 0.25, 0.58 and 6 h (n = 10, with 5 male and 5 female) after dosing and washed with saline. Each tissue sample (0.2 g) was homogenized in 5 volumes (v/w) of distilled water. Tissue homogenates were stored at −20 °C until analysis. Verticinone was extracted from tissue homogenate based on the method described for plasma with slight modifications. The evaporated residue was reconstituted in 200 μL methanol, vortexed, followed by centrifugation at 15,000 rpm twice. An aliquot of 10 μL was injected into the LC-MS system for analysis.
as §1
CDL voltage […], probe voltage 4.5 kV, CDL temperature 250 °C, block temperature 200 °C, gas flow 1.5 L/min. Hupehenine was used as the internal standard (IS). Both verticinone and IS were detected using selected ion monitoring (SIM) at m/z 430.25 for verticinone and m/z 416.30 for hupehenine (IS), with a dwell time of 200 ms. […]

A short description of data set [3]: Plasma protein binding in vitro by ultrafiltration, human plasma. It counts as in vitro ADME, humans. The protocol: The ability of verticinone to bind to plasma protein was determined by the ultrafiltration method. A Centrifree Micropartition device (Millipore, Beverly, MA, USA) was used to separate unbound and bound verticinone. Verticinone of different concentrations were added into blank rat and human plasma to give final concentrations at 5, 30 and 100 ng/mL. The spiked plasma was incubated for 30 min at 37 °C and an aliquot (100 μL) was analyzed by previously described methods to determine the total concentration of verticinone. The ultrafiltrate was obtained by centrifuging at 14,000 rpm for 10 min. The concentration of unbound verticinone in filtrate was similarly determined by the previously described methods. The percentage of free fraction (p) of verticinone was calculated as follow: p = (concentration of verticinone in ultrafiltrate/concentration of verticinone in original spiked plasma sample) × 100%.

The nature of data set [4]: Metabolic rate in rat liver microsomes. In kind it is in vitro ADME. A general note: Liver microsomes are a subcellular fraction often used to study metabolism.

Like-named read-outs stand apart in the source and are kept apart here.

Turning to `C[C@H]1CC[C@@H]2N(C1)C[C@H]1[C@@H]3C[C@H]4[C@@H](CC(=O)[C@H]5C[C@@H](O)CC[C@@]54C)[C@@H]3CC[C@@H]1[C@]2(C)O` [verticinone, Verticinone], in data set [1] (female rats), the total exposure AUC(0-inf) – broadly, total exposure, with the tail of the curve extrapolated – came to 98.9 ± 35.8 ng·h/mL; the area under the curve AUC(0-t) (commonly exposure summed from dosing to a finite time, without extrapolation to infinity) was determined as 65.6 ± 7.03 ng·h/mL; the MRT last was 2.04 ± 0.34 h; the Vz/F worked out at 82.5 ± 70.3 L/kg. In data set [1] (male rats), the total exposure AUC(0-inf) was found to be 168 ± 23 ng·h/mL, the exposure AUC(0-t) amounted to 160 ± 20.2 ng·h/mL, the MRT last worked out at 2.37 ± 0.14 h and the Vz/F came out at 10.9 ± 1.56 L/kg. The “Exposure, fold higher in male rats than in female rats” value in data set [1] (i.v. dose 0.4 mg/kg) was determined as 2.4 fold. Besides, the “rank order of AUC values for individual tissues” value in data set [2] (female rats) was “intestine > stomach > liver > kidney > spleen > lung > gonad > heart > muscle > skin > fat > brain”. Moreover, in data set [2] (male rats), the “rank order of AUC values for individual tissues” value is on record as “intestine > stomach > liver > kidney > spleen > lung > heart > gonad > muscle > skin > fat > brain”. Also, the “concentration found in the brain” value in data set [2] (oral 2 mg/kg, rats, 15 min, 35 min and 6 h) is listed as “very little was found in the brain”. In data set [3] (human plasma, 5 ng/mL, ultrafiltration, n = 4, read-out: Protein binding rates (%) (converted)), the fraction unbound at 30 min, 5 ng/mL is 0.074. Also, the fraction unbound at 30 min, 30 ng/mL in data set [3] (human plasma, 30 ng/mL, ultrafiltration, n = 4, read-out: Protein binding rates (%) (converted)) was 0.105. Besides, in data set [3] (human plasma, 100 ng/mL, ultrafiltration, n = 4, read-out: Protein binding rates (%) (converted)), the fraction unbound at 30 min, 100 ng/mL was 0.054. In data set [3] (human, plasma, humans, concentration range 5~100 ng/mL), the fraction unbound at 30 min was 0.054 to 0.105. Moreover, in data set [4] (female rats), the “metabolic rate in rat liver microsomes” value is 3.76 × 10^−3 nmol/min/mg protein. Besides, the “metabolic rate in rat liver microsomes, females faster than males” value in data set [4] (females vs males) is given as “about 1.7 times”. Also, the “metabolic rate in rat liver microsomes” value in data set [4] (male rats) is given as 2.18 × 10^−3 nmol/min/mg protein.
